This note sets out measurements from ChEMBL document CHEMBL4007451, “The 2014 Philip S. Portoghese Medicinal Chemistry Lectureship: The "Phenylalkylaminome" with a Focus on Selected Drugs of Abuse” (J Med Chem, 2017).

A short description of assay [1]: Displacement of [3H]DTG from sigma receptor (unknown origin). Set-up: species or system Homo sapiens. For orientation: Loss of bound radioactivity is the signal in a displacement assay; it reports binding, not function.
Assay [2] in a line: Displacement of [3H]ketanserin from rat brain 5HT2 receptor.
The species entered for assay [3] is Rattus norvegicus. In words: Induction of stimulus generalization in rat trained to discriminate DOM assessed as appropriate responding level to training drug by two lever method. The assay is classed as functional.
The target of assay [4] is 5-hydroxytryptamine receptor 2A (Rattus norvegicus, UniProt P14842). In words: Displacement of [3H]DOB from 5HT2A in Sprague-Dawley rat cortex membranes measured after 15 mins by scintillation counting method. In kind it is cell membranes.
Chain of 5-hydroxytryptamine receptor 2A (Rattus norvegicus, UniProt P14842) (P14842 whole entry): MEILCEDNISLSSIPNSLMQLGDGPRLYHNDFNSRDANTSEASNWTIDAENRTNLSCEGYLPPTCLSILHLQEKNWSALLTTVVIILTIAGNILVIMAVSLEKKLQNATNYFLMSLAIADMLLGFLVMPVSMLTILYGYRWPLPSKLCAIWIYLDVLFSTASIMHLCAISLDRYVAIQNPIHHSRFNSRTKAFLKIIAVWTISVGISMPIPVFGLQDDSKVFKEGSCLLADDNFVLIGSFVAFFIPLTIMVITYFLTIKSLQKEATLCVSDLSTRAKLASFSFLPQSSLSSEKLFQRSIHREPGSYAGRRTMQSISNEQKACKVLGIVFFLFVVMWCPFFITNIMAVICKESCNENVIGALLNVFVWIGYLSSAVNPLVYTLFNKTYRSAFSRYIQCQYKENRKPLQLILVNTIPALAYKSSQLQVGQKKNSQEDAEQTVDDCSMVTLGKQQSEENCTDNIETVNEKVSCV
The species named for assay [5] is Rattus norvegicus. In words: Induction of stimulus generalization in Sprague-Dawley rat trained to discriminate alpha-ET assessed as appropriate responding level to training drug by two lever method. The assay is classed as functional. As to conditions: Rattus norvegicus, Sprague-Dawley.
The species named for assay [6] is Rattus norvegicus. As to the kind of experiment: Induction of stimulus generalization in Sprague-Dawley rat trained to discriminate DOM assessed as appropriate responding level to training drug by two lever method. The assay is classed as functional. As to conditions: for ED50: Rattus norvegicus, Sprague-Dawley.
The target in assay [7] is Sigma non-opioid intracellular receptor 1 (Cavia porcellus, UniProt Q60492). As to the kind of experiment: Displacement of (+)-[3H]pentazocine from guinea pig brain membrane sigma1 receptor by scintillation spectrometric method.
Chain of Sigma non-opioid intracellular receptor 1 (Q60492 whole entry): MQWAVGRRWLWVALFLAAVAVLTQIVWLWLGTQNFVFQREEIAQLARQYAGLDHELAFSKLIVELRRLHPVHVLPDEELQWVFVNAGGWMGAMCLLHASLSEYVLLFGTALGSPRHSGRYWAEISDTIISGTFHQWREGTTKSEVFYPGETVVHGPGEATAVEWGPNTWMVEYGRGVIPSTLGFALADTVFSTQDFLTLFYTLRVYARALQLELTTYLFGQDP
The species named for assay [8] is Rattus norvegicus. In words: Induction of stimulus generalization in rat trained to discriminate S(+)methamphetamine assessed as appropriate responding level to training drug by two lever method. In kind it is functional.
The species entered for assay [9] is Rattus norvegicus. In words: Induction of stimulus generalization in Sprague-Dawley rat trained to discriminate S(+)AMPH assessed as appropriate responding level to training drug by two lever method. The assay is classed as functional.
Assay [10] is filed under the species Rattus norvegicus. As to the kind of experiment: Induction of stimulus generalization in Sprague-Dawley rat trained to discriminate S(-)MCAT assessed as appropriate responding level to training drug by two lever method. In kind it is functional.
The species named for assay [11] is Rattus norvegicus. In words: Induction of stimulus generalization in Sprague-Dawley rat trained to discriminate MDMA assessed as appropriate responding level to training drug by two lever method. As to conditions: Rattus norvegicus, Sprague-Dawley. In kind it is functional.
The species entered for assay [12] is Rattus norvegicus. As to the kind of experiment: Induction of stimulus generalization in Sprague-Dawley rat trained to discriminate AMPH assessed as appropriate responding level to training drug by two lever method. In kind it is functional.
The species named for assay [13] is Rattus norvegicus. As to the kind of experiment: Induction of stimulus generalization in rat trained to discriminate (+)amphetamine assessed as appropriate responding level to training drug by two lever method. In kind it is functional.
Assay [14] is filed under the species Rattus norvegicus. As to the kind of experiment: Induction of stimulus generalization in Sprague-Dawley rat trained to discriminate rac-cathinone assessed as appropriate responding level to training drug by two lever method. The assay is classed as functional.
Assay [15] in a line: Activity at NET in rat synaptosomes assessed as release of [3H]NE after 30 mins by liquid scintillation counting method. In kind it is subcellular.
Assay [16] deals with Sodium-dependent dopamine transporter (Rattus norvegicus, UniProt P23977). In words: Activity at DAT in rat synaptosomes assessed as release of [3H]DA after 5 mins by liquid scintillation counting method. The assay is classed as subcellular.
Chain of Sodium-dependent dopamine transporter (P23977 whole entry): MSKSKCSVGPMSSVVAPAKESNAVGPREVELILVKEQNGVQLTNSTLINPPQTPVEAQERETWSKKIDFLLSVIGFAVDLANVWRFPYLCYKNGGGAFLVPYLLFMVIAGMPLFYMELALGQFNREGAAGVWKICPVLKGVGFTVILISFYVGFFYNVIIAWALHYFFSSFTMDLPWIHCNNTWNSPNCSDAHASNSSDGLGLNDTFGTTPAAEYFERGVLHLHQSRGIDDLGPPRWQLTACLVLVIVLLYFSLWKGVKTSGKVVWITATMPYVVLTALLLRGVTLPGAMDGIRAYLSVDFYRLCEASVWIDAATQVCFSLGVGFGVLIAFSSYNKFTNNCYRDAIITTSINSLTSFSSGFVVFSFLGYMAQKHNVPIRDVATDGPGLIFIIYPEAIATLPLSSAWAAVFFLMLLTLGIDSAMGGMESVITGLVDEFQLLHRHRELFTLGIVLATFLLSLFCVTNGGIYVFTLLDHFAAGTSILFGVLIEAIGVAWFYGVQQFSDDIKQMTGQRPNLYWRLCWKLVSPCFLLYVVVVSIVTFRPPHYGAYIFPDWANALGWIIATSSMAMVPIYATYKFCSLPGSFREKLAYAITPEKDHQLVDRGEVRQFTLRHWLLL
The species named for assay [17] is Rattus norvegicus. In words: Induction of stimulus generalization in rat trained to discriminate PMMA assessed as appropriate responding level to training drug by two lever method. In kind it is functional. As to conditions: for ED50: Rattus norvegicus.
For assay [18], the target named is Sodium-dependent serotonin transporter (Rattus norvegicus, UniProt P31652). As to the kind of experiment: Activity at SERT in rat synaptosomes assessed as release of [3H]HT after 5 mins by liquid scintillation counting method. The assay is classed as subcellular.
Chain of Sodium-dependent serotonin transporter (P31652 whole entry): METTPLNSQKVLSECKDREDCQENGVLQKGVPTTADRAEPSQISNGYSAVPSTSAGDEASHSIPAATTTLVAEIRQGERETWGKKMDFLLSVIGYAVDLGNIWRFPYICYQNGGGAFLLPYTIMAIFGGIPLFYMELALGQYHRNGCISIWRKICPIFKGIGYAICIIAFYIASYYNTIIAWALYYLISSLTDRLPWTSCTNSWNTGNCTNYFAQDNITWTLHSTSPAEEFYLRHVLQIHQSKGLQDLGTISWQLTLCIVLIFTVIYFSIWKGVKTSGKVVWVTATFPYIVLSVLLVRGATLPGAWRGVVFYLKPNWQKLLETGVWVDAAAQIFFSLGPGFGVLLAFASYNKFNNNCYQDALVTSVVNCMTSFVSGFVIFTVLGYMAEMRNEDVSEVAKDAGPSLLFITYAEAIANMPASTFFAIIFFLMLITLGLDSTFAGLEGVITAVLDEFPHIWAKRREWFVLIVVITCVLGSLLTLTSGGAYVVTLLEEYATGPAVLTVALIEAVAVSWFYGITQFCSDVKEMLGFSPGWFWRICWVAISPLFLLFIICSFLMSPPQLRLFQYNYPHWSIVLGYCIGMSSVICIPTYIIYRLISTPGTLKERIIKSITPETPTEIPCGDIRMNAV
The species entered for assay [19] is Rattus norvegicus. In words: Induction of stimulus generalization in rat trained to discriminate MDMA assessed as appropriate responding level to training drug by two lever method. In kind it is functional.
The subject of assay [20] is Mus musculus. In words: Anxiolytic-like activity in iv dosed ICR mouse assessed as increase in marbles left uncovered measured after 30 mins by marble burying assay. The assay is classed as functional. As to conditions: 0.5 h.
Assay [21] is filed under the species Rattus norvegicus. As to the kind of experiment: Induction of stimulus generalization in Sprague-Dawley rat trained to discriminate PMMA assessed as appropriate responding level to training drug by two lever method. The assay is classed as functional.
The target in assay [22] is 5-hydroxytryptamine receptor 2A (Homo sapiens, UniProt P28223). In words: Displacement of [125I]DOI from recombinant human 5HT2A expressed in Syrian hamster AV12 cell membranes.
Chain of 5-hydroxytryptamine receptor 2A (Homo sapiens, UniProt P28223) (P28223 whole entry): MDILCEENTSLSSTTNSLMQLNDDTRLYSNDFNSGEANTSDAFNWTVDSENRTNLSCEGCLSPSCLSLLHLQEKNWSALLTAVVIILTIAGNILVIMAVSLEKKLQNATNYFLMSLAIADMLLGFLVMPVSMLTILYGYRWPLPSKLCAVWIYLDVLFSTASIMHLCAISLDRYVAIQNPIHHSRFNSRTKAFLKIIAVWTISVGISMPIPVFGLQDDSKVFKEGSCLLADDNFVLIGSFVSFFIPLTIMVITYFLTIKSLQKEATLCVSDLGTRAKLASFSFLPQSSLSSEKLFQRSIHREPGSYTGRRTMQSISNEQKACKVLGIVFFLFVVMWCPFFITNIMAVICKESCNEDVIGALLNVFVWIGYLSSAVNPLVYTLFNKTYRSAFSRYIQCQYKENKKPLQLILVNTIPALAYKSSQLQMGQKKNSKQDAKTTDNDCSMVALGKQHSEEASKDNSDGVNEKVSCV
For assay [23], the target named is T1, 5-hydroxytryptamine receptor 1A (Rattus norvegicus, UniProt P19327).
T1 sequence (P19327 whole entry): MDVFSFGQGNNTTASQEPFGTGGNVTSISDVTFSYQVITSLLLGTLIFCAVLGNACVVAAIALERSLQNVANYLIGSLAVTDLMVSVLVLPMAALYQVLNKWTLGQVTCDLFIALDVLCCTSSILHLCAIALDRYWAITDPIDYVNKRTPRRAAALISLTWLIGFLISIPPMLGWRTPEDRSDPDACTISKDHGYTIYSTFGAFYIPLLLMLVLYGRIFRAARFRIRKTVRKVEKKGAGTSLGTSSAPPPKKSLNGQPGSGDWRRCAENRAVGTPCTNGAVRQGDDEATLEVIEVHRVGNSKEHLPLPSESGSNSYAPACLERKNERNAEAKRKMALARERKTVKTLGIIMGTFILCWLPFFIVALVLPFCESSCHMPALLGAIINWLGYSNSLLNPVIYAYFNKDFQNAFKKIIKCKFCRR
As to the kind of experiment: Displacement of [3H]-8-OH-DPAT from 5-HT1A receptor in Sprague-Dawley rat cortex membranes after 15 mins by liquid scintillation spectrometric method. The assay is classed as cell membranes.

As a reminder, the Ki is a dissociation constant, usually derived from enzyme kinetics or from competition with a known ligand. One may read the ED50 as the dose that gives a 50% effect, or the effect in half of the subjects. Broadly, the EC50 is the concentration at which the effect is half-maximal.

The compound `CC(Cc1ccccc1)NCCCCCc1ccccc1` (stereo not given) returned a Ki in [1] of 6.3 nM.
`CC(N)Cc1c[nH]c2ccccc12` (stereo not given) returned a Ki in [2] of 3100 nM. Besides, in [3], the ED50 amounted to 3.1 mg/kg.
In turn, `COc1ccc(OC)c(CC(C)N)c1` (stereo not given) came in with a Ki in assay [4] of 268 nM.
For the compound `COc1cc(CC(C)N)c(OC)cc1C` (stereo not given) [DOM], the ED50 in assay [5] worked out at 0.4 mg/kg; in [6] it was 0.4 mg/kg; in [3] it was 0.44 mg/kg.
In assay [7], `c1ccc(CCCCCN2CCCC(c3ccccc3)C2)cc1` (stereo not given) showed a Ki of 0.14 nM.
Take `CN[C@@H](C)Cc1ccccc1` [METHAMPHETAMINE]: the ED50 turned out to be 0.06 mg/kg in assay [8], 0.2 mg/kg in [9] and 0.17 mg/kg in assay [10].
On to `CCC(N)Cc1c[nH]c2ccccc12` (racemic) [ETRYPTAMINE], for which the ED50 in assay [11] came out at 3.5 mg/kg; in assay [5], 1.3 mg/kg; in assay [6] it was 6.6 mg/kg; in assay [3] it was 6.6 mg/kg. In addition, the Activity in assay [12] was 20 - 80%.
Turning to `C[C@H](N)C(=O)c1ccccc1` [CATHINONE], the ED50 in [13] came to 0.32 mg/kg; in assay [14] it was 0.22 mg/kg; in assay [9] it was 0.34 mg/kg; in assay [10], 0.17 mg/kg.
Regarding `CCNC(C)Cc1cccc(C(F)(F)F)c1` (stereo not given) [FENFLURAMINE], the EC50 in assay [15] came to 740 nM.
Regarding `C[C@@H](N)Cc1ccc2c(c1)OCO2`, the EC50 in assay [15] came to 290 nM; in assay [16], 900 nM; in assay [18], 310 nM. Also, in assay [17], the ED50 was 1.5 mg/kg.
For the compound `C=CCN1CC[C@]2(C)c3cc(O)ccc3C[C@H]1[C@H]2C`, in assay [1], the Ki was determined as 150 nM.
For the compound `C[C@@H](N)Cc1c[nH]c2ccccc12`, in [2], the Ki was 5000 nM.
As to `COc1ccc(C[C@H](C)N)cc1`, the Activity in assay [17] and in [19] was 20 - 80% each time.
As for `CN1C(=O)CN=C(c2ccccc2)c2cc(Cl)ccc21` [DIAZEPAM], the ED50 in assay [20] was 0.26 mg/kg.
With `CC[C@H](N)Cc1c[nH]c2ccccc12`, the ED50 in assay [11] turned out to be 2 mg/kg; in assay [21], 1.4 mg/kg; in [5] it was 1.3 mg/kg; in assay [6] it was 2.7 mg/kg. The figures for the EC50 in assay [15], in assay [16] and in assay [18] were over 10000 nM, 64 nM and 20 nM, respectively. Besides, the Activity in assay [12] is reported as 53%.
In assay [7], `c1ccc(CCCCCN2CCCCC2)cc1` displayed a Ki of 0.38 nM.
Consider `c1ccc(CCCCCN2CCCCC2Cc2ccccc2)cc1` (stereo not given), for which the affinity in [7] corresponds to a Ki of 0.08 nM.
On to `CN[C@@H](C)C(=O)c1ccccc1`, for which the EC50 in assay [15] came out at 13.1 nM; in assay [16], 14.8 nM; in [18], 1770 nM. The ED50 in [8] was 0.21 mg/kg; in [9] it was 0.18 mg/kg; in assay [10], 0.11 mg/kg.
`O=C1CC2(CCCC2)CC(=O)N1CCCCN1CCN(c2ncccn2)CC1` [BUSPIRONE]: the ED50 in assay [20] was 2.36 mg/kg.
Take `COc1cc(OC)c(OC)cc1CC(C)N` (stereo not given): the Ki in [4] was found to be 81 nM; in assay [22], 57.9 nM.
For the compound `CC[C@@H](N)Cc1c[nH]c2ccccc12`, the ED50 came to 1.3 mg/kg in assay [11]; 1.6 mg/kg in assay [21]; 7.8 mg/kg in assay [12] (Rattus norvegicus, Sprague-Dawley); 1.6 mg/kg in assay [5]. The EC50 in assay [15] was over 10000 nM; in [16], 900 nM; in [18], 68 nM. Further, the Activity in assay [6] is on record as 33%.
`CCCCN(CCCC)[C@@H]1CCc2cccc(O)c2C1` registered a Ki in [23] of 109 nM.
Regarding `CC(N)Cc1ccc2c(c1)OCO2` (racemic) [TENAMFETAMINE], the EC50 in assay [15] worked out at 108 nM; in assay [16], 190 nM; in assay [18], 160 nM. The ED50 in assay [17] was found to be 0.5 mg/kg.
As for `C[C@H](Cc1ccccc1)NCCCCCc1ccccc1`, in [7], the affinity corresponds to a Ki of 0.5 nM.
For `C[C@H](N)Cc1c[nH]c2ccccc12`, the Ki in assay [2] amounted to 2500 nM. The ED50 in assay [3] amounted to 1.64 mg/kg.
